In patent US8192962B2, “Processes for detecting toxic substances” (Daikin Industries, Ltd., priority 2001, dated 2012):

Tested on: Metabolism protein genes
Assay: DNA chip mRNA expression in yeast, metabolism protein genes (Table 7)
Type: cell-based, Saccharomyces cerevisiae S288C
Description: Yeast (Saccharomyces cerevisiae S288C (α SUC2mal mel gap2 CUP1)) were incubated at 25° C. on YPD medium (yeast extract 1%, polypepton 2%, glucose 2%). One of toxic chemical substances was added to the cells at logarithmic growth phase, and the cells were further incubated for two hours. Cells were cultured without any chemical substance in the same condition, and were used as control. Concentrations of the chemical substances were defined to inhibit the growth of the yeast but not lead to death.
After completion of the incubation, the culture was centrifuged to collect the cells. To the cells, sodium acetate buffer (50 mM sodium acetate, 10 mM EDTA, 1% SDS) was added, and the mixture was shaken at 65° C. for five minutes, followed by returning to room temperature, and obtaining the supernatant, of which the procedures were repeated two times. To the supernatant, ½ amount of a solution of phenol/chloroform was added, and the mixture was centrifuged to give a supernatant, which was added with an equal amount of chloroform, and the mixture was centrifuged to give a supernatant. To the supernatant, an equal amount of isopropanol containing 0.3 M sodium acetate was added, and the mixture was allowed to stand at room temperature for 30 minutes, after which the mixture was centrifuged to give a sediment of the whole RNAs. Seventy % ethanol was added to the sediment, and the mixture was again centrifuged to give a sediment, which was then dried and dissolved in water. mRNA was isolated from the whole RNAs as followings. In view of the fact that a poly A chain is attached to the 3′ terminus of mRNA, a polynucleotide having a poly T structure which was immobilized on the surface of latex beads was used to trap the mRNA, and then the mRNA was washed and eluted with spine column (Oligotex-dT30<Super>mRNA Purification Kit, Takara). Reverse transcription of the mRNA was conducted with a reverse transcriptase (Super Script II Reverse Transcriptase; catalogue No. 18064-014, GibcoBRL) using fluorescence-labeled nucleotides to give cDNAs that were introduced with Cy3-dUTP or Cy5-dUTP during the reverse transcription.
The labeled cDNAs were dissolved in TE buffer (10mM Tris-HCl/1 mM EDTA, pH8.0), and the solution was dropped on the DNA chip containing the whole genes of yeast (DNA Chip Research Inc. Japan) so that the cDNAs were hybridized on the DNA chip at 65° C. for over 12 hours. The fluoresces intensity of the DNA chip was read with a scanner, and the ratio relative to the fluorescence intensity resulting from the absence of chemical substance was estimated as the following, which is shown in Tables 1 to 9: […]

[Cl][Pb][Cl] [(4), PbCl2]
The level of expressed mRNA in the presence of chemical substance/The level of expressed mRNA in the absence of chemical substance (yeast gene YAL012W): 0.8 | The level of expressed mRNA in the presence of chemical substance/The level of expressed mRNA in the absence of chemical substance (yeast gene YAL038W): 1.4 | level of expressed mRNA in the presence/in the absence of chemical substance (yeast gene YBR003W): 1.9 | level of expressed mRNA in the presence/in the absence of chemical substance (yeast gene YBR011C): 1.1 | level of expressed mRNA in the presence/in the absence of chemical substance (yeast gene YBR020W): 1.9 | The level of expressed mRNA in the presence of chemical substance/The level of expressed mRNA in the absence of chemical substance (yeast gene YBR023C): 1.1 | The level of expressed mRNA in the presence of chemical substance/The level of expressed mRNA in the absence of chemical substance (yeast gene YBR029C): 1.0 | The level of expressed mRNA in the presence of chemical substance/The level of expressed mRNA in the absence of chemical substance (yeast gene YBR183W): 2.9 | The level of expressed mRNA in the presence of chemical substance/The level of expressed mRNA in the absence of chemical substance (yeast gene YBR222C): 0.8 | The level of expressed mRNA in the presence of chemical substance/The level of expressed mRNA in the absence of chemical substance (yeast gene YBR256C): 1.3 | The level of expressed mRNA in the presence of chemical substance/The level of expressed mRNA in the absence of chemical substance (yeast gene YCL009C): 0.5 | The level of expressed mRNA in the presence of chemical substance/The level of expressed mRNA in the absence of chemical substance (yeast gene YCL064C): 0.8 | level of expressed mRNA in the presence/in the absence of chemical substance (yeast gene YCR010C): 4.2 | level of expressed mRNA in the presence/in the absence of chemical substance (yeast gene YCR034W): 0.9 | The level of expressed mRNA in the presence of chemical substance/The level of expressed mRNA in the absence of chemical substance (yeast gene YCR048W): 0.6 | The level of expressed mRNA in the presence of chemical substance/The level of expressed mRNA in the absence of chemical substance (yeast gene YCR098C): 2.0 | The level of expressed mRNA in the presence of chemical substance/The level of expressed mRNA in the absence of chemical substance (yeast gene YDR019C): 4.0 | level of expressed mRNA in the presence/in the absence of chemical substance (yeast gene YDR050C): 1.8 | level of expressed mRNA in the presence/in the absence of chemical substance (yeast gene YDR073W): 1.4 | level of expressed mRNA in the presence/in the absence of chemical substance (yeast gene YDR123C): 2.1 | level of expressed mRNA in the presence/in the absence of chemical substance (yeast gene YDR178W): 2.2 | level of expressed mRNA in the presence/in the absence of chemical substance (yeast gene YDR277C): 3.0 | level of expressed mRNA in the presence/in the absence of chemical substance (yeast gene YDR284C): 2.9 | level of expressed mRNA in the presence/in the absence of chemical substance (yeast gene YDR345C): 2.6 | The level of expressed mRNA in the presence of chemical substance/The level of expressed mRNA in the absence of chemical substance (yeast gene YDR380W): 1.7 | level of expressed mRNA in the presence/in the absence of chemical substance (yeast gene YDR400W): 0.7 | level of expressed mRNA in the presence/in the absence of chemical substance (yeast gene YDR408C): 4.1 | level of expressed mRNA in the presence/in the absence of chemical substance (yeast gene YDR483W): 2.0 | The level of expressed mRNA in the presence of chemical substance/The level of expressed mRNA in the absence of chemical substance (yeast gene YDR497C): 1.3 | The level of expressed mRNA in the presence of chemical substance/The level of expressed mRNA in the absence of chemical substance (yeast gene YDR502C): 1.2 | The level of expressed mRNA in the presence of chemical substance/The level of expressed mRNA in the absence of chemical substance (yeast gene YDR516C): 2.1 | level of expressed mRNA in the presence/in the absence of chemical substance (yeast gene YEL063C): 1.3 | level of expressed mRNA in the presence/in the absence of chemical substance (yeast gene YER015W): 1.5 | The level of expressed mRNA in the presence of chemical substance/The level of expressed mRNA in the absence of chemical substance (yeast gene YER026C): 1.0 | The level of expressed mRNA in the presence of chemical substance/The level of expressed mRNA in the absence of chemical substance (yeast gene YER053C): 1.7 | The level of expressed mRNA in the presence of chemical substance/The level of expressed mRNA in the absence of chemical substance (yeast gene YER069W): 1.4 | level of expressed mRNA in the presence/in the absence of chemical substance (yeast gene YER081W): 1.4 | The level of expressed mRNA in the presence of chemical substance/The level of expressed mRNA in the absence of chemical substance (yeast gene YER096W): 2.0 | level of expressed mRNA in the presence/in the absence of chemical substance (yeast gene YER120W): 0.8 | The level of expressed mRNA in the presence of chemical substance/The level of expressed mRNA in the absence of chemical substance (yeast gene YER178W): 1.0 | level of expressed mRNA in the presence/in the absence of chemical substance (yeast gene YFL011W): 3.3 | The level of expressed mRNA in the presence of chemical substance/The level of expressed mRNA in the absence of chemical substance (yeast gene YFL014W): 11.0 | The level of expressed mRNA in the presence of chemical substance/The level of expressed mRNA in the absence of chemical substance (yeast gene YFL030W): 2.0 | The level of expressed mRNA in the presence of chemical substance/The level of expressed mRNA in the absence of chemical substance (yeast gene YFL031W): 0.7 | The level of expressed mRNA in the presence of chemical substance/The level of expressed mRNA in the absence of chemical substance (yeast gene YFL056C): 1.5 | The level of expressed mRNA in the presence of chemical substance/The level of expressed mRNA in the absence of chemical substance (yeast gene YFL057C): 1.8 | The level of expressed mRNA in the presence of chemical substance/The level of expressed mRNA in the absence of chemical substance (yeast gene YFR047C): 2.6 | level of expressed mRNA in the presence/in the absence of chemical substance (yeast gene YGL012W): 1.2 | The level of expressed mRNA in the presence of chemical substance/The level of expressed mRNA in the absence of chemical substance (yeast gene YGL022W): 0.3 | level of expressed mRNA in the presence/in the absence of chemical substance (yeast gene YGL115W): 2.0 | The level of expressed mRNA in the presence of chemical substance/The level of expressed mRNA in the absence of chemical substance (yeast gene YGL126W): 0.8 | level of expressed mRNA in the presence/in the absence of chemical substance (yeast gene YGL205W): 0.8 | The level of expressed mRNA in the presence of chemical substance/The level of expressed mRNA in the absence of chemical substance (yeast gene YGL209W): 2.6 | The level of expressed mRNA in the presence of chemical substance/The level of expressed mRNA in the absence of chemical substance (yeast gene YGL248W): 0.7 | The level of expressed mRNA in the presence of chemical substance/The level of expressed mRNA in the absence of chemical substance (yeast gene YGR037C): 0.8 | The level of expressed mRNA in the presence of chemical substance/The level of expressed mRNA in the absence of chemical substance (yeast gene YGR055W): 0.7 | level of expressed mRNA in the presence/in the absence of chemical substance (yeast gene YGR096W): 4.6 | level of expressed mRNA in the presence/in the absence of chemical substance (yeast gene YGR191W): 1.5 | The level of expressed mRNA in the presence of chemical substance/The level of expressed mRNA in the absence of chemical substance (yeast gene YGR194C): 2.1 | level of expressed mRNA in the presence/in the absence of chemical substance (yeast gene YGR204W): 1.3 | The level of expressed mRNA in the presence of chemical substance/The level of expressed mRNA in the absence of chemical substance (yeast gene YGR256W): 0.8 | The level of expressed mRNA in the presence of chemical substance/The level of expressed mRNA in the absence of chemical substance (yeast gene YGR282C): 1.9 | level of expressed mRNA in the presence/in the absence of chemical substance (yeast gene YGR288W): 2.6 | level of expressed mRNA in the presence/in the absence of chemical substance (yeast gene YHR025W): 0.6 | The level of expressed mRNA in the presence of chemical substance/The level of expressed mRNA in the absence of chemical substance (yeast gene YHR111W): 1.9 | level of expressed mRNA in the presence/in the absence of chemical substance (yeast gene YHR123W): 1.0 | The level of expressed mRNA in the presence of chemical substance/The level of expressed mRNA in the absence of chemical substance (yeast gene YHR137W): 1.7 | The level of expressed mRNA in the presence of chemical substance/The level of expressed mRNA in the absence of chemical substance (yeast gene YHR174W): 1.2 | The level of expressed mRNA in the presence of chemical substance/The level of expressed mRNA in the absence of chemical substance (yeast gene YHR176W): 1.4 | level of expressed mRNA in the presence/in the absence of chemical substance (yeast gene YHR210C): 5.2 | level of expressed mRNA in the presence/in the absence of chemical substance (yeast gene YIL006W): 2.9 | The level of expressed mRNA in the presence of chemical substance/The level of expressed mRNA in the absence of chemical substance (yeast gene YIL045W): 2.2 | The level of expressed mRNA in the presence of chemical substance/The level of expressed mRNA in the absence of chemical substance (yeast gene YIL107C): 1.5 | The level of expressed mRNA in the presence of chemical substance/The level of expressed mRNA in the absence of chemical substance (yeast gene YIL154C): 0.8 | The level of expressed mRNA in the presence of chemical substance/The level of expressed mRNA in the absence of chemical substance (yeast gene YIL155C): 3.7 | The level of expressed mRNA in the presence of chemical substance/The level of expressed mRNA in the absence of chemical substance (yeast gene YIR034C): 0.6 | The level of expressed mRNA in the presence of chemical substance/The level of expressed mRNA in the absence of chemical substance (yeast gene YIR036C): 1.8 | The level of expressed mRNA in the presence of chemical substance/The level of expressed mRNA in the absence of chemical substance (yeast gene YJL031C): 1.3 | The level of expressed mRNA in the presence of chemical substance/The level of expressed mRNA in the absence of chemical substance (yeast gene YJL068C): 1.6 | The level of expressed mRNA in the presence of chemical substance/The level of expressed mRNA in the absence of chemical substance (yeast gene YJL088W): 0.5 | The level of expressed mRNA in the presence of chemical substance/The level of expressed mRNA in the absence of chemical substance (yeast gene YJL099W): 1.3 | level of expressed mRNA in the presence/in the absence of chemical substance (yeast gene YJL121C): 0.8 | level of expressed mRNA in the presence/in the absence of chemical substance (yeast gene YJL167W): 1.1 | The level of expressed mRNA in the presence of chemical substance/The level of expressed mRNA in the absence of chemical substance (yeast gene YJL172W): 1.5 | level of expressed mRNA in the presence/in the absence of chemical substance (yeast gene YJL216C): 0.9 | The level of expressed mRNA in the presence of chemical substance/The level of expressed mRNA in the absence of chemical substance (yeast gene YJL219W): 1.6 | level of expressed mRNA in the presence/in the absence of chemical substance (yeast gene YJR077C): 1.6 | The level of expressed mRNA in the presence of chemical substance/The level of expressed mRNA in the absence of chemical substance (yeast gene YJR137C): 0.8 | level of expressed mRNA in the presence/in the absence of chemical substance (yeast gene YJR143C): 0.8 | The level of expressed mRNA in the presence of chemical substance/The level of expressed mRNA in the absence of chemical substance (yeast gene YJR148W): 3.5
